SMILES	melting point [°C]
O=C(Oc1cccc2c(OC(=O)c3ccc(O)cc3)c3c(OC(=O)c4ccc(O)cc4)cccc3cc12)c1ccc(O)cc1	326
CC(C)(C)OC(=O)N1CC(CCl)c2c1cc([N+](=O)[O-])c1ccccc21 (stereo not given)	168 to 169
CCCCN(CCCC)Cc1cc(NC(=O)Nc2c(C(C)C)cccc2C(C)C)n(Cc2ccccc2)n1	149 to 152
CON1C(C)(C)CC(OC(=O)c2cc(C(C)(C)C)c(O)c(C(C)(C)C)c2)CC1(C)C	126 to 128
COc1ccccc1CNc1ccc2cc(Nc3ncc(C(F)(F)F)o3)ccc2n1	166
O=C(O)c1cccc(-c2cccc(Oc3cc(Cl)cc(Cl)c3)n2)c1	234 to 235
O=C(NC1CC1)C(O)=CC(=O)c1ccc(Cc2ccc(F)cc2)o1	116 to 117
Cc1ccc(S(=O)(=O)Nc2nc(-c3cccc(-c4ccccc4)c3)cs2)cc1	153 to 155
CCOC(=O)Nc1c(C)c(C)c2c(c1C)CC(C)(C)O2	102 to 104
CC(=O)OCc1ccc2oc(=O)c(C(=O)Oc3cc(Cl)cc(Cl)c3)cc2c1	146 to 150
CC1(C)OC(=O)C(=CNc2ncnc3ccccc23)C(=O)O1	191 to 193
Nc1ccc(C(O)c2ccc(Cl)cn2)cc1 (stereo not given)	122 to 123
CC(C)Cn1c(=O)n(C)c(=O)c2cc(Cc3cccc4ccccc34)sc21	137 to 138
Fc1ccc2[nH]c(CN3C[C@@H]4C[C@H]3CN4c3ccccn3)cc2c1	211 to 214
COc1cc(-n2cccn2)ccc1-n1cc(OC)c(=O)c(-c2ccnn2-c2cccc(C(F)(F)F)c2)n1	215 to 217
CC(Cl)(Cl)C(NC(=O)c1ccc(Br)cc1)NC(=NC#N)Nc1ccc(Cl)nc1 (stereo not given)	215 to 216
CCn1nc(C)c(N)c1C(N)=O	143 to 145
COc1nc2cc(Cl)ccc2n2cnnc12	250 to 252
COc1ccc(C)cc1NC(=O)Nc1ccc(N2CCN(C(=O)Nc3cc(OCCO)ccc3Cl)CC2)nc1	132 to 134
CCCCCCCCCC(=O)Oc1ccc2c(N3CCN(CCCC(=O)c4ccc(F)cc4)CC3)noc2c1	69 to 71
O=C(O)Cc1nc(-c2ccc(F)cc2)oc1-c1ccoc1	208 to 209
Cn1cnc2c3cccnc3n(-c3ccccc3)c(=O)c21	> 300
N#CNc1ccccc1-c1ccccc1	85 to 87
Cc1nc(C(=O)O)co1	> 250
CC(C)[C@H](NC(=O)[C@H](C)NC(=O)OCc1ccccc1)[C@@H](O)c1c(-c2ccccc2)c1=O	156 to 158

SMILES	melting point [°C]
CCCc1c(-c2cccnn2)ssc1=S	77
Nc1nc2c(s1)-c1c(cnn1-c1ccccc1)CC2	307 to 308
Cc1c(Cl)c(Cl)c(SC(F)(F)F)c(Cl)c1Cl	49.5 to 50.5
CS(=O)(=O)OCCCc1cccc(OCc2coc(/C=C/c3ccccc3)n2)c1	75 to 76
CC(C)(C)OC(=O)N[C@H]1CCc2cc(-c3ccccc3)ccc2NC1=O	198 to 200
CN1CN(c2ccccc2)C2(CCN(CCCn3c(=O)[nH]c4ccccc43)CC2)C1=O	186
CC(c1ccc(OC(=O)CCl)cc1)(c1ccc(OC(=O)CCl)cc1)c1ccc(OC(=O)CCl)cc1	144 to 146
O=c1c2ncn3c2n(c(=O)n1Cc1ccccc1)CC=C3c1cccc(C(F)(F)F)c1	198 to 200
O=C(Nc1ccc2cc(CN3CCCC3)cnc2c1)c1ccc(-c2ccccc2)nc1	208 to 210
Cc1c(C#N)c(-c2ccc(C#N)cc2)c(C)n1Cc1ccc(Cl)c(C(O)C(F)(F)F)c1 (stereo not given)	196 to 198
CCCC[C@H](NC(=O)[C@H](CCC(=O)O)NC(=O)OCc1ccccc1)C(=O)CSCc1ccco1	67 to 71
CCCCC1(CCCC)CCc2ccc(OCc3ccc4ccccc4n3)cc2C1=O	88 to 89
Cc1ccc(C(=O)CNC(=O)c2ccc(C(F)(F)F)cc2)s1	182 to 183
CCCC1(CCC)C(=O)N(C(C)(C)C)CC(C)(C)N1OC(C)(C)C#N	85 to 87
CCOP(C)(=O)CCNS(=O)(=O)c1ccc(C)cc1 (stereo not given)	124 to 126
CC(=O)Nc1cnc2c(NC(=O)c3c(Cl)cccc3Cl)cccc2c1	244 to 245
COc1cccc(CNC(=O)c2nc3cccc(OCc4ccc(C#N)cc4)c3c(=O)[nH]2)c1	218 to 220
CCOC(=O)NC(=O)C(=NNc1cc(Cl)c(C(C)(C)C#N)c(Cl)c1)C(=O)NC(=O)OCC	212
O=CNC1=NN(c2cccc(F)c2)C(c2ccc(Cl)cc2)C1 (stereo not given)	128 to 130
C[C@H]1C(=O)C[C@@H]2C[C@H]1OO[C@]2(C)/C=C\c1cc(C(F)(F)F)nc2cc(C(F)(F)F)ccc12	160
CC1(C)OCCC(=O)c2ccccc2NC1=O	146 to 148
CC(C)[C@@H]1CC[C@@H](C)C[C@H]1OC(=O)NCCC(C)n1cnc2c(N)nc3ccccc3c21 (stereo not given in full)	84 to 86
COC(=O)C1CCCCCCCSC[C@@H](C(=O)OC)NC1=O (stereo not given in full)	156 to 164
CC(C)(C)c1nc(-c2ccc(F)cc2)c(-c2ccc(S(C)(=O)=O)cc2)o1	130 to 131
CC(=O)Nc1ccc(OCCN2CC=C(c3ccc(F)cc3)CC2)cc1	96 to 98

SMILES	melting point [°C]
Cn1ccnc1CC1COc2ccccc2O1 (stereo not given)	158 to 160
CC(=O)Nc1cccc2c1Oc1ccccc1C21CCN(C)CC1	176 to 178
CNC(=C[N+](=O)[O-])NCCSCc1[nH]cnc1C	141 to 143
NCc1ccn(-c2cc3c(cc2[N+](=O)[O-])[nH]c(=O)c(=O)n3CC(=O)O)c1	> 270
O=C(c1ccc(O)cc1O)c1ccccc1F	109 to 111
CCCCCCCC(=O)NCCCCO	76 to 77
Fc1cccc(F)c1C1=NC(c2ccc(C#Cc3ccc(Cl)cc3)cc2)CO1 (stereo not given)	155 to 156
O=C(Cc1ccccc1)c1ccc(OCC(F)(F)F)cc1	108
COc1cccc(-c2nc(-c3ccccc3)c3ncc(-c4csc5ccccc45)cc3n2)c1	112 to 113
COC[C@@H]1CN(c2ccc(OCc3ccccc3)cc2)C(=O)O1	101
COc1cc(OC)nc(Sc2ncccc2C(=O)O)n1	165 to 168
O=c1oc2cc(O)ccc2c2c1CCCC2	200 to 202
COCCNC(=O)c1cccc(-c2cccc3cc(Cc4cccc(S(C)(=O)=O)c4)sc23)c1	131 to 132
COC(=O)[C@@H]1CCCCN1S(=O)(=O)c1ccc(Cl)c(COc2cccc3c(-n4ccnc4)cc(C)nc23)c1Cl	81
OCc1cc(N2CCOCC2)ncn1	138
COc1ccc2[nH]c(C(N)=O)c(OC(C)C)c2c1	138 to 140
Nc1cnc(Br)c(N)n1	176 to 178
O=C(O)C(CCCCCc1ccc(Cl)cc1)S(=O)(=O)c1cccc(Cl)c1 (stereo not given)	104 to 106
CCOC(=O)NNc1cc(C)c(-c2ccc(Br)cc2)nn1	178 to 179
Cn1cccc1-c1cc(OC(F)F)n(-c2ccc(NC(=O)c3ccncc3F)cc2)n1	154 to 155
Cc1c(C)c2c(c(Cl)c1C=O)CC(C)(C)C2	108
CN(C)CCc1c(CC(C#N)(c2ccccc2)c2ccccc2)c2ccccc2n1C	133 to 136
CCn1c(Oc2cccc(N)c2)nnc1[C@@H](C)NS(=O)(=O)c1ccc(Cl)c(Cl)c1	142 to 145
C#CCn1c(=O)n(C)c(=O)c2c1nc(Cl)n2Cc1ccccc1	169 to 172
C[C@@H]1S[C@@H](C(=O)Nc2ccc(CN3CCSC3)cc2)Cc2cc3c(cc2C1=O)OCO3	179 to 181

SMILES	melting point [°C]
CC(Oc1ccc(-c2ccc(C#N)c(C#N)c2)cc1)C(O)CCc1cccnc1 (stereo not given)	136 to 137
O=c1[nH][nH]c(=O)n1-c1cc(Cl)cc(Cl)c1	260
O=Cc1ccc2c(c1)S(=O)(=O)c1ccccc1C=C2	167 to 171
CCC(n1cncn1)C(O)(Cn1cncn1)c1c(F)cccc1F (stereo not given)	110 to 111
COc1c2c(c(OC)c(OC)c1OC)CC(CCCCCCCCNC(C)=O)C2	57 to 61
CCCCC[C@H]1CC[C@H](CCc2ccc(O)cc2)CC1	102
CSc1sc(C(=O)O)c2c1-c1sc(-c3ccccc3)cc1CC2	215 to 217
CCCc1nc(CSc2ccc(CCC(=O)O)cc2)c(C(=O)O)n1Cc1cc2c(cc1Cl)OCO2	171
c1ccc(-c2n[nH]c3c2sc2ccccc23)cc1	236 to 238
O=C1NC(=S)SC1=Cc1ccc2c(c1)N(CCc1cccc(Cl)c1)C(=O)CO2	280 to 282
Fc1ccc(Oc2ccc(-c3ccn(-c4ncccn4)n3)cc2)cc1	123 to 125
CONS(=O)(=O)c1cccc(C(F)(F)F)c1	78 to 81
Nc1c([N+](=O)[O-])cc([N+](=O)[O-])c2c1CCCC2	175 to 176
Cc1ccc(-c2nc(COc3ccc(CCCn4ccnc4)cc3)co2)s1	83 to 84
CN(C)c1ccc([N+](=O)[O-])c(C(=O)O)c1	185 to 187
[N-]=[N+]=NC1CC(n2cnc3c(N4CCC4)nc(N)nc32)OC1CO (stereo not given)	141 to 143
CCCCCCCCn1c(=O)c2c(Cl)cc(Cl)cc2n(Cc2ccccc2)c1=O	82 to 85
COc1ccccc1-c1[nH]c2cccc3c2c1CCNC3=O	254 to 255
Cc1ccc(CN2CCN(C3=NC4(C=CC(=O)C=C4)C(c4ccc(O)cc4)=C3)CC2)cc1	140
O=C(NC(=O)c1c(F)cccc1F)Nc1cccc(S(=O)(=O)C(F)(F)C(F)Cl)c1 (stereo not given)	192 to 194
COc1ccc2[nH]c(SCc3nccc(N4CCCCC4)c3Cl)nc2c1	145 to 147
Cc1nnc2n1-c1sc(Cl)cc1C(c1ccccc1C(F)(F)F)=NC2	193 to 195
CCCCc1c(C(=O)c2ccc(OC)cc2)[nH]c2ccc([N+](=O)[O-])cc12	142
O=C(O)CC1(c2ccc(Cl)cc2)CNC(=O)C1 (stereo not given)	190 to 191
CCCCc1nc2cccc(CC#N)c2n1Cc1ccc(-c2ccccc2C#N)cc1	180 to 181

Source: a melting point compilation (Tetko et al.; mined from patent text by program, amines drawn as free bases though some values may be those of a salt)
